Laboratory results: US9694016B2 (Novartis AG, priority 2013, dated 2017)

target: b-Raf (V600E) (Homo sapiens (Human), UniProt P15056, V600E); settings: read-out: b-Raf IC-50; AlphaScreen, 60 min pre-incubation, 3 hours reaction
Sequence (P15056 whole entry V600E): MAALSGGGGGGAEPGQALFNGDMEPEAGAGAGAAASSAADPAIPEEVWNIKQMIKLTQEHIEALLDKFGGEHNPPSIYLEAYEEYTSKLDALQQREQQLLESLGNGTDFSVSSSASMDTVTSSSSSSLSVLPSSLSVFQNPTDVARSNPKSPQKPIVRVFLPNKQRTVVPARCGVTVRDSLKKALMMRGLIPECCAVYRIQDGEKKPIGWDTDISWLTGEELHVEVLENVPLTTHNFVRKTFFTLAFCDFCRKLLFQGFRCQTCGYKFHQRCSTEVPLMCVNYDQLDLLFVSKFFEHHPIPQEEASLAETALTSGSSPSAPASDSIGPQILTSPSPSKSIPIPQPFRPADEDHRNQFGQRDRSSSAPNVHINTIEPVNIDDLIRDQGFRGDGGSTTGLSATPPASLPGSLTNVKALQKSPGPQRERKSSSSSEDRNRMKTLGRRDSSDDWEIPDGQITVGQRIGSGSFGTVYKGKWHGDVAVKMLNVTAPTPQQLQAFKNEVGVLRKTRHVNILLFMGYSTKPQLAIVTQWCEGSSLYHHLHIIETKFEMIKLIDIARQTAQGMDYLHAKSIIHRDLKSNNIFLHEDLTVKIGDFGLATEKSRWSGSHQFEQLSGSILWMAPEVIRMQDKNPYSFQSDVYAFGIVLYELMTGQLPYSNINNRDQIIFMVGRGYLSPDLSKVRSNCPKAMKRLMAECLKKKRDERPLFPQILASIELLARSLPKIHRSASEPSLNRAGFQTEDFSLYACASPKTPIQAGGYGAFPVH

SMILES	IC50 [nM]
COc1cncc(NC(=O)c2ccc(C)c(-c3cc(N4CCOCC4)c(=O)n(C)c3)c2)c1 [Example 442, N-(5-methoxypyridin-3-yl)-4-methyl-3-(1-methyl-5-morpholino-6-oxo-1,6-dihydropyridin-3-yl)benzamide]	68.7
Cc1ncc(NC(=O)c2ccnc(C(F)F)c2)cc1-c1cncc(N2CCOCC2)n1 [Example 535, 2-(difluoromethyl)-N-(6-methyl-5-(6-morpholinopyrazin-2-yl)pyridin-3-yl)isonicotinamide]	45.5
CCOc1nnc(-c2cc(NC(=O)c3ccnc(C(C)C)c3)cnc2C)cc1N1CCOCC1 [Example 621, N-(5-(6-ethoxy-5-morpholinopyridazin-3-yl)-6-methylpyridin-3-yl)-2-isopropylisonicotinamide]	2.6
Cc1ccc(NC(=O)c2ccnc(C(C)(C)C#N)c2)cc1-c1cc(N2CCOCC2)c(OC2CCOCC2)nn1 [Example 584, 2-(2-cyanopropan-2-yl)-N-(4-methyl-3-(5-morpholino-6-((tetrahydro-2H-pyran-4-yl)oxy)pyridazin-3-yl)phenyl)isonicotinamide]	1.2
Cc1ccc(NC(=O)c2ccnc(C(C)(C)C#N)c2)cc1-c1cc(N2CCOC[C@@H]2C)c(=O)n(C)n1 [Example 663, (S)-2-(2-cyanopropan-2-yl)-N-(4-methyl-3-(1-methyl-5-(3-methylmorpholino)-6-oxo-1,6-dihydropyridazin-3-yl)phenyl)isonicotinamide]	9.2
Cc1ccc(NC(=O)c2ccnc(N(C)CCO)c2)cc1-c1cc(N2CCOCC2)c(=O)n(C)c1 [Example 456]	3.3

Next, values leading:

IC50 [nM]	SMILES
0.8	Cc1ccc(NC(=O)c2ccnc(C(C)(F)F)c2)cc1-c1cc(N2CCOCC2)c2nccn2n1 [Example 843, 2-(1,1-difluoroethyl)-N-(4-methyl-3-(8-morpholinoimidazo[1,2-b]pyridazin-6-yl)phenyl)isonicotinamide]
0.8	Cc1ccc(NC(=O)c2ccnc(C(C)(C)F)c2)cc1-c1cc(N2CCOCC2)c(OC2CCOCC2)nn1 [Example 578, 2-(2-fluoropropan-2-yl)-N-(4-methyl-3-(5-morpholino-6-((tetrahydro-2H-pyran-4-yl)oxy)pyridazin-3-yl)phenyl)isonicotinamide]
1.7	Cc1ccc(NC(=O)c2ccnc(C(C)(C)O)c2)cc1-c1cc(N2CCOCC2)c2nccn2n1 [Example 841, 2-(2-hydroxypropan-2-yl)-N-(4-methyl-3-(8 morpholinoimidazo[1,2-b]pyridazin-6-yl)phenyl)isonicotinamide]

same assay, conditions: read-out: b-Raf IC-50; AlphaScreen, 60 min pre-incubation, reaction 3 hours at room temperature

SMILES	IC50 [nM]
Cc1ncc(NC(=O)c2ccnc(C(C)(C)O)c2)cc1-c1cnc(OC2CCOCC2)c(N2CCOCC2)c1 [Example 939, 2-(2-hydroxypropan-2-yl)-N-(2-methyl-5′-morpholino-6′-((tetrahydro-2H-pyran-4-yl)oxy)-[3,3′-bipyridin]-5-yl)isonicotinamide]	15.3
Cc1ncc(NC(=O)c2cncc(C(F)(F)F)c2)cc1-c1cc(N2CCOCC2)c(OCC(F)F)nn1 [Example 917, N-(5-(6-(2,2-difluoroethoxy)-5-morpholinopyridazin-3-yl)-6-methylpyridin-3-yl)-5-(trifluoromethyl)nicotinamide]	0.8

Second part, the compound after the results:

IC50 [nM]	SMILES
4.35	Cc1ncc(NC(=O)c2ccnc(C(F)(F)F)c2)cc1-c1cc(NCCO)nc(N2CCOCC2)c1 [Example 1040, N-(2′-((2-hydroxyethyl)amino)-2-methyl-6′-morpholino-[3,4′-bipyridin]-5-yl)-2-(trifluoromethyl)isonicotinamide]
1.36	Cc1ccc(NC(=O)c2cncc(C(F)(F)F)c2)cc1-c1cnc(OCCO)c(N2CCOCC2)c1 [Example 1001, N-(3-(6-(2-hydroxyethoxy)-5-morpholinopyridin-3-yl)-4-methylphenyl)-5-(trifluoromethyl)nicotinamide]
2.27	Cc1ccc(NC(=O)c2ccnc(C(F)F)c2)cc1-c1cc(N2CCOCC2)nc(NCCO)c1F [Example 1016, 2-(difluoromethyl)-N-(3-(3-fluoro-2-((2-hydroxyethyl)amino)-6-morpholinopyridin-4-yl)-4-methylphenyl)isonicotinamide]
6.1	Cc1ncc(NC(=O)c2ccnc(C(C)(F)F)c2)cc1-c1cc(N2CCOCC2)c2nccn2c1 [Example 879, 2-(1,1-difluoroethyl)-N-(6-methyl-5-(8-morpholinoimidazo[1,2-a]pyridin-6-yl)pyridin-3-yl)isonicotinamide]
2.99	Cc1ccc(NC(=O)c2cnnc(C(F)(F)F)c2)cc1-c1cc(N2CCOCC2)nc(N2CC(C)(O)C2)c1 [Example 1073, N-(3-(2-(3-hydroxy-3-methylazetidin-1-yl)-6-morpholinopyridin-4-yl)-4-methylphenyl)-6-(trifluoromethyl)pyridazine-4-carboxamide]
3.97	Cc1ccc(NC(=O)c2ccnc(C(F)(F)F)c2)cc1-c1cc(N2CCOCC2)nc(NCCO)c1F [Example 1006, N-(3-(3-fluoro-2-((2-hydroxyethyl)amino)-6-morpholinopyridin-4-yl)-4-methylphenyl)-2-(trifluoromethyl)isonicotinamide]
34.9	Cc1ncc(NC(=O)c2cccc(-c3nnco3)c2)cc1-c1cc(N2CCOCC2)nc(N2CC(O)C2)c1 [Example 1092, N-(2′-(3-hydroxyazetidin-1-yl)-2-methyl-6′-morpholino-[3,4′-bipyridin]-5-yl)-3-(1,3,4-oxadiazol-2-yl)benzamide]
2.15	Cc1ccc(NC(=O)c2ccnc(C(C)(F)F)c2)cc1-c1cnc(OCCO)c(N2CCOCC2)c1 [Example 1000, 2-(1,1-difluoroethyl)-N-(3-(6-(2-hydroxyethoxy)-5-morpholinopyridin-3-yl)-4-methylphenyl)isonicotinamide]
1.76	Cc1ccc(NC(=O)c2ccnc(C(C)(C)O)c2)cc1-c1cnc(OC(C)C)c(N2CCOCC2)c1 [Example 947, 2-(2-hydroxypropan-2-yl)-N-(3-(6-isopropoxy-5-morpholinopyridin-3-yl)-4-methylphenyl)isonicotinamide]

same assay, conditions: read-out: b-Raf IC-50; Table 2; AlphaScreen, 3 hours reaction

IC50 [nM]	SMILES
15.3	CCOc1ncc(-c2cc(NC(=O)c3ccnc(C(C)(C)O)c3)cnc2C)cc1N1CCOCC1 [Example 240, N-(6′-ethoxy-2-methyl-5′-morpholino-[3,3′-bipyridin]-5-yl)-2-(2-hydroxypropan-2-yl)isonicotinamide]
36.5	Cc1ncc(NC(=O)c2cc(CN(C)C)cc(C(F)(F)F)c2)cc1-c1cnc(C#N)c(N2CCOCC2)c1 [Example 249, N-(6′-cyano-2-methyl-5′-morpholino-[3,3′-bipyridin]-5-yl)-3-((dimethylamino)methyl)-5-(trifluoromethyl)benzamide]
3100	Cn1cc(-c2cc(NC(=O)c3cccc(C(F)(F)F)c3)ccc2C#N)cc(N2CCOCC2)c1=O [Example 411, N-(4-cyano-3-(1-methyl-5-morpholino-6-oxo-1,6-dihydropyridin-3-yl)phenyl)-3-(trifluoromethyl)benzamide]
500	Cc1ccc(NC(=O)c2cccnn2)cc1-c1ccnc(N2CCOCC2)c1 [Example 67, N-(4-methyl-3-(2-morpholinopyridin-4-yl)phenyl)pyridazine-3-carboxamide]
35.1	Cc1ncc(NC(=O)c2ccnc(C(C)C)c2)cc1-c1cc(N2CCOCC2)c(=O)n(C)c1 [Example 400, N-(1′,2-dimethyl-5′-morpholino-6′-oxo-1′,6′-dihydro-[3,3′-bipyridin]-5-yl)-2-isopropylisonicotinamide]
